Assay results from ChEMBL document CHEMBL1201862, “PubChem BioAssay data set” (2004).
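Values below derive from 48-hour exposures of cells grown in 96-well plates, with endpoints linearly interpolated between the two concentrations bracketing the appropriate inhibition level. Abbreviation: GI50, concentration required for 50% inhibition of growth.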 Active and inactive are the calls of the source. No stated cut-off is given here; in the data, active = GI50 up to about 1.1 µM and inactive = higher.

What was measured:
Assay in all cases: NCI tumour cell line growth inhibition, 48 h
[1] = tested on: NCI-H23
[2] = tested on: CCRF-CEM
[3] = tested on: MOLT-4
[4] = tested on: RXF 393
[5] = tested on: SF-268
[6] = tested on: HT-29
[7] = tested on: SK-MEL-28
[8] = tested on: SW-620
[9] = tested on: KM12
[10] = tested on: HL-60
[11] = tested on: SK-MEL-2
[12] = tested on: OVCAR-3
[13] = tested on: COLO 205
[14] = tested on: IGROV-1
[15] = tested on: K562
[16] = tested on: LOX IMVI

Measured: GI50

O=C1NC(=O)/C(=N\c2cccc3c(=O)[nH][nH]c(=O)c23)C(c2nc3ccccc3s2)C1=O (configuration not stated)
inactive: [1] > 100 µM | [2] 55.2 µM | [3] 71.1 µM | [4] > 100 µM | [5] > 100 µM | [6] > 100 µM | [7] > 100 µM | [8] > 100 µM | [9] > 100 µM | [10] > 100 µM | [11] > 100 µM | [12] > 100 µM | [13] > 100 µM | [14] > 100 µM

CS(=O)(=O)NNS(=O)(=O)c1ccc(F)cc1
inactive: [15] > 100 µM | [1] > 100 µM | [2] > 100 µM | [3] > 100 µM | [4] > 100 µM | [5] > 100 µM | [6] > 100 µM | [8] > 100 µM | [9] > 100 µM | [10] > 100 µM | [11] > 100 µM | [12] > 100 µM | [16] > 100 µM | [13] > 100 µM | [14] > 100 µM

COC(=N)/C(=C1\OC(=N)C(c2ccc(Cl)cc2)=C1O)c1ccc(Cl)cc1
inactive: [15] > 100 µM | [1] > 100 µM | [2] 70.5 µM | [3] > 100 µM | [4] > 100 µM | [5] > 100 µM | [6] > 100 µM | [7] > 100 µM | [8] > 100 µM | [9] > 100 µM | [10] 81.7 µM | [11] > 100 µM | [12] > 100 µM | [16] > 100 µM | [13] > 100 µM | [14] > 100 µM

CC1=C(C(=O)CC(=O)C(=O)Nc2cccc(C)c2C)Sc2ccccc2N1
inactive: [15] > 100 µM | [1] > 100 µM | [2] > 100 µM | [3] > 100 µM | [4] > 100 µM | [5] > 100 µM | [6] > 100 µM | [7] > 100 µM | [8] > 100 µM | [9] > 100 µM | [10] > 100 µM | [11] > 100 µM | [12] > 100 µM | [16] > 100 µM | [14] > 100 µM

N=C(N)NS(=O)(=O)c1ccc(NC(=O)c2cccc3c(N)c4ccccc4nc23)cc1
inactive: [15] > 100 µM | [1] > 100 µM | [2] 92.3 µM | [3] 42 µM | [4] > 100 µM | [5] > 100 µM | [7] > 100 µM | [8] > 100 µM | [9] 8.57 µM | [11] > 100 µM | [12] 84.9 µM | [16] > 100 µM | [13] > 100 µM | [14] > 100 µM

O=C(CC(=O)N1N=C(n2ccc3ccccc32)CC1c1ccccc1)Nc1cccc(Cl)c1 (configuration not stated)
inactive: [15] > 100 µM | [1] > 100 µM | [2] > 100 µM | [3] > 100 µM | [4] > 100 µM | [5] > 100 µM | [6] > 100 µM | [7] > 100 µM | [8] > 100 µM | [9] > 100 µM | [10] > 100 µM | [11] > 100 µM | [12] > 100 µM | [16] 66.4 µM | [13] > 100 µM | [14] > 100 µM

COC(=O)C1[C@H](c2cc(OC)c(OC)c(OC)c2)OC(=O)C1(C(=O)OC)C(=O)c1ccc2c(c1)OCO2 (some centres not stated)
inactive: [15] > 100 µM | [1] > 100 µM | [2] > 100 µM | [3] > 100 µM | [4] > 100 µM | [5] > 100 µM | [6] > 100 µM | [7] > 100 µM | [8] > 100 µM | [9] > 100 µM | [10] > 100 µM | [12] > 100 µM | [16] > 100 µM | [13] > 100 µM | [14] > 100 µM

O=C(NN1C(=O)C(Cl)C1c1cccc(Cl)c1)c1ccccc1O (configuration not stated)
inactive: [15] > 100 µM | [1] > 100 µM | [2] > 100 µM | [3] > 100 µM | [4] > 100 µM | [5] > 100 µM | [6] > 100 µM | [7] > 100 µM | [9] > 100 µM | [10] > 100 µM | [11] > 100 µM | [12] > 100 µM | [16] > 100 µM | [14] > 100 µM

COc1ccccc1N1C(=O)C2c3[nH]c4ccccc4c3C3CCC(C(C)(C)C)CC3C2C1=O (configuration not stated)
inactive: [15] > 100 µM | [1] > 100 µM | [2] > 100 µM | [3] > 100 µM | [4] > 100 µM | [5] > 100 µM | [6] > 100 µM | [7] > 100 µM | [8] > 100 µM | [10] > 100 µM | [13] > 100 µM | [14] > 100 µM

COc1ccc(C2NC(c3ccc(OC)cc3)C(C)C(=O)C2C)cc1 (configuration not stated)
inactive: [15] 42.7 µM | [1] > 100 µM | [2] > 100 µM | [3] 46.7 µM | [4] > 100 µM | [5] > 100 µM | [6] > 100 µM | [7] > 100 µM | [9] > 100 µM | [10] > 100 µM | [11] > 100 µM | [12] > 100 µM | [16] > 100 µM | [13] > 100 µM | [14] > 100 µM

CCCCCCCCCCCCCS(=O)(=O)NCC(N)=O
inactive: [1] > 100 µM | [2] > 100 µM | [4] > 100 µM | [5] > 100 µM | [6] > 100 µM | [7] > 100 µM | [8] > 100 µM | [9] > 100 µM | [10] > 100 µM | [11] > 100 µM | [12] > 100 µM | [16] > 100 µM | [13] > 100 µM | [14] > 100 µM

CC(=O)/C(=C\c1ccccc1)C(=O)Nc1ccccc1
inactive: [15] > 100 µM | [1] > 100 µM | [2] > 100 µM | [3] > 100 µM | [4] > 100 µM | [5] > 100 µM | [6] > 100 µM | [8] > 100 µM | [9] > 100 µM | [10] > 100 µM | [11] > 100 µM | [12] > 100 µM | [16] > 100 µM | [14] > 100 µM

COc1ccc2c(c1)[n+]([O-])c(-c1ccc(Cl)c(Cl)c1)c(N)[n+]2[O-]
inactive: [15] 40.7 µM | [1] 15.8 µM | [3] 37.5 µM | [5] 37.1 µM | [6] 37.5 µM | [7] 27 µM | [8] 38.9 µM | [9] 34.3 µM | [10] 23.7 µM | [11] 19.9 µM | [12] 26.1 µM | [13] 19 µM | [14] 27 µM
